Test results from patent US10821127B2, “Composition for inhibiting myeloid-derived suppressor cells comprising decitabine or its pharmaceutically acceptable salt as active ingredient” (SNU R&DB Foundation, priority 2015, dated 2020).

Columns and labels:
[1] = system: immune cells in the spleen; experiment: Number of immune cells in spleen of tumorigenic mice, flow cytometer (Example 4-1); format: in vivo, mouse; conditions: for T cell populations CD3+, CD3+CD4+, CD3+CD8+ in the spleen: 0, 0.25, 0.5 mg/kg intraperitoneal, FIG. 3
Method: (§1) Particularly, in the tumorigenic mice prepared in Example 1, decitabine (DAC) or gemcitabine (GEM) were diluted with 100 μl PBS to be 0, 0.25, 0.5 mg/kg per mouse, administrated in the right abdominal cavity (every 2 days and a total of 10 times) for each concentration, and then sacrificed to extract the spleen and the bone marrow. Thereafter, spleen cells and bone marrow cells were extracted and stained by a trypan blue staining method and then the number of cells was measured by using a hematocytometer.
(§2) In order to verify effects of decitabine and gemcitabine on immune cells in the spleen, the decitabine and the gemcitabine were administrated to the tumorigenic mice prepared in Example 1 and then the numbers of cells in a T cell population, a B cell population, an NK cell population, an NKT cell population, and a myeloid-based cell population in the spleen were measured.
(§3) Particularly, by the method disclosed in Example 3, decitabine (DAC) or gemcitabine (GEM) was administrated and then the spleen was extracted. Thereafter, each immune cell population were stained with fluorescence-bound antibodies purchased by BD Corporation and then the number of cells was measured through a flow cytometer.
In order to measure the number of cells in the T cell population, an anti-CD3 antibody, an anti-CD4 antibody, and an anti-CD8 antibody were used (FIG. 3).
In order to the number of cells in the B cell population, an anti-B220 antibody was used. Further, in order to measure the number of cells in the NK and NKT cell populations, anti-CD3 and anti-NK1.1 antibodies were used (FIG. 4).
In order to measure the number of cells in the myeloid-based cell population, an anti-CD11b antibody and an anti-CD11c antibody were used (FIG. 5).

MDSC = conditions: preclinical model; gemcitabine: spleen of tumor-induced mice (Clin Cancer Res 2005; 11: 6713-6721); cited from earlier work
[2] = system: myeloid-derived suppressor cells; conditions: gemcitabine comparison dose; cited from earlier work
[3] = system: cells in the spleen and the bone marrow; experiment: Number of cells in spleen and bone marrow of tumorigenic mice, trypan blue staining (Example 3); format: in vivo, mouse; conditions: intraperitoneal, every 2 days, 10 times; for number of bone marrow cells: 0, 0.25, 0.5 mg/kg, FIG. 2 right
Method: (§4) 150 μl PBS including a colon cancer cell line MC38 1.5×10^6 expressing a human CEA gene was injected hypodermically to the right flank of a 7 to 8-week-old female B6 mouse to form a tumor. The mouse was bred in a Seoul National University laboratory under a temperature of 23.5±1° C. and a humidity of 50±5% in a light/dark cycle of 12 hours. All animal experiments followed the guideline of the Animal Ethics Committee of Seoul National University.
It was well-known that gemcitabine suppressed myeloid-derived suppressor cells (MDSC) derived from the tumor (Clin Cancer Res 2005; 11(18) Sep. 15, 2005), and the gemcitabine has been used as an anticancer chemotherapeutic agent. Accordingly, whether the decitabine is usable as an anticancer chemotherapeutic agent like the gemcitabine was verified through the comparison with the gemcitabine. First, in order to verify effects of decitabine and gemcitabine on cells in the spleen and the bone marrow, the decitabine and the gemcitabine were administrated to the tumorigenic mice prepared in Example 1 and then the number of cells in the spleen and the bone marrow was measured.
as §1

[4] = system: immune cells in the bone marrow; experiment: Number of immune cells in bone marrow of tumorigenic mice, flow cytometer (Example 5-1); format: in vivo, mouse; conditions: for number of T cell populations CD3+ and CD3+CD4+ in the bone marrow: FIG. 8
Method: as §1
as §2, with “bone marrow,” for “spleen,”, “bone marrow” for “spleen”
(§5) Particularly, by the method disclosed in Example 3, decitabine (DAC) or gemcitabine (GEM) was administrated and then the bone marrow was extracted. Thereafter, the bone marrow was stained by using the antibodies disclosed in Example 4-1, and then the number of cells was measured through a flow cytometer (FIGS. 8 to 10).

[5] = system: granulocytic, monokaryotic and MDSC cell populations in the spleen; experiment: Number of cells of subpopulations of myeloid-based cell population in spleen of tumorigenic mice (Example 4-2); format: in vivo, mouse
Method: as §1
(§6) In order to verify an effect of decitabine or gemcitabine on cells of a subpopulation of myeloid-based cell populations in the spleen and the bone marrow, decitabine and gemcitabine were administrated to the tumorigenic mice prepared in Example 1 and then the numbers of cells in a granulocytic cell population, a monokaryotic cell population, and an MDSC cell population were measured.
as §3, with “Thereafter, monokaryotic and granulocytic” for “Thereafter, each immune”, “cell populations” for “cell population”, “the numbers” for “the number”, “cells were” for “cells was”
In order to measure the numbers of cell in the monokaryotic cell population and the granulocytic cell population, anti-CD11b, anti-F480 and anti-Gr1 antibodies were used (FIG. 6).
In order to measure the number of cells of the subpopulation of the MDSC cell population, anti-CD11b, anti-Ly6c and anti-Ly6g antibodies were used (FIG. 7).

[6] = system: colon cancer cell line MC38 expressing a human CEA gene; format: in vivo, mouse; conditions: every 2 days, total of 10 times
Method: as §4
It was verified whether decitabine was usable as an anticancer chemotherapy through immune treatment based on a bone marrow-based specific drug effect. First, in order to verify an effect of the decitabine on the tumorigenic mice, the decitabine was administrated to the tumorigenic mice prepared in Example 1 and then changes in tumor size and survival rate were measured.
Particularly, in the tumorigenic mice prepared in Example 1, decitabine (DAC) at a concentration of 40 mg/ml purchased from Sigma Co., Ltd. was diluted with 100 μl PBS to be 0, 0.125, 0.25, 0.5, and 1 mg/kg per mouse and then administrated in the right abdominal cavity (every 2 days and a total of 10 times) for each concentration to verify the tumor size and the survival rate. The tumor size was calculated by the following Equation after measuring a width and a length of a tumor mass at an interval of 2 to 3 days from the time when 10 days elapsed after injecting tumor cells: Long length×short length×short length/2. In the survival rate, the number of surviving mice in each group was calculated by the following Equation: The number of surviving mice/a total number of mice×100

IFN-γ = experiment: Cytokine expression in tumor cells after decitabine treatment, PCR (Example 7): IFN-γ; format: cell-based; conditions: MC38 expressing the CEA gene, 0, 10, 100 nM, 48 hours; FIG. 14
Method: (§7) In order to verify a possibility of a result that the MDSC creation itself in the bone marrow is decreased by the tumor cells, in addition to a direct apoptotic effect of the MDSC by the reduction of the MDSC cell population caused by the decitabine, an expression change in cytokines inducing the creation of the MDSC cell population after treating the decitabine in the tumor cells was measured.
(§8) Particularly, the decitabine was treated in each well for each concentration 0, 10, 100 nM in a colon cancer cell line MC38 expressing the CEA gene which was cultured for 1 week in a 6-well plate and cultured for 48 hours, and then the cells were collected. Thereafter, from the collected cells, total RNA was isolated by using a trizol reagent (Invitrogen, Carlsbad, Calif.) and then the isolated RNA 5 μg reacted with reverse transcriptase for 1 hour at 42° C. to synthesize a cDNA and 5 minutes at 95° C. to inactivate the enzyme. Polymerase chain reaction (PCR) was performed by using a primer in the following Table 1 by using the cDNA as a template of PCR and a PCR product was electrophoresed with an agarose gel and visualized to confirm expression of IL-6, IFN-γ and VEGF genes.

MDSC cell population = experiment: In vitro apoptosis of MDSC cell population, bone marrow stem cells co-cultured with MC38 in Transwell (Example 6); format: cell-based, mouse; conditions: 50 nM, as compared with the gemcitabine; FIG. 13
Method: In order to verify effects of decitabine and gemcitabine on apoptosis of an MDSC cell population, the decitabine or the gemcitabine was treated in vitro and then a change in the number of cells in the MDSC cell population was measured.
Particularly, from the tumorigenic mice prepared in Example 1, the bone marrow was extracted and then bone marrow stem cells were isolated. Thereafter, while the bone marrow stem cells in a bottom well and cells of a colon cancer cell line MC38 expressing a CEA gene were co-cultured in an insert well […] with a DMEM culture medium by using a Transwell system, the decitabine and the gemcitabine of concentrations of 50 nM were treated at a third day after cell culture, respectively, and then cells after two days were collected. Thereafter, in order to measure the numbers of cells in the myeloid-based cell population and the MDSC cell population, the cell populations were stained by using an anti-CD11b antibody and an anti-GR1 antibody and then the number of cells was measured through a flow cytometer.

IL-6 = experiment: Cytokine expression in tumor cells after decitabine treatment, PCR (Example 7): IL-6; format: cell-based; conditions: MC38 expressing the CEA gene, 0, 10, 100 nM, 48 hours; FIG. 14
Method: as §7, §8

[7] = system: myeloid-derived suppressor cells; experiment: Dose with MDSC suppression effect in tumorigenic mice; format: in vivo
Method: In the preferred embodiment of the present invention, the inventors verified that in order to verify whether the decitabine suppresses the myeloid-derived suppressor cells produced from the bone marrow by the tumor, tumorigenic mice were prepared and the decitabine was administrated for each concentration, and as a result, an effect of suppressing the myeloid-derived suppressor cells by the decitabine is excellent in a dose range of 0.5 to 1 mg/kg.
Accordingly, through Examples 1 to 8, it was verified that the decitabine had excellent effects of suppressing the MDSC and inducing the apoptosis as compared with the gemcitabine and may enhance the effect of a cancer immunotherapy. Further, when the decitabine has an excellent MDSC suppression effect at 0.5 mg/kg and a fifth part to a tenth part of an effective dose (5.25 mg/kg/once, 34 mg/kg/cycle) applied to an actual patient is compared with an effective dose of 120 mg/kg at which the gemcitabine has the MDSC suppression effect, it was verified that the effective dose is a low concentration of a hundredth part or more.

[8] = system: granulocytic, monokaryotic and MDSC cell populations in the bone marrow; experiment: Number of cells of subpopulations of myeloid-based cell population in bone marrow of tumorigenic mice (Example 5-2); format: in vivo, mouse
Method: as §1
as §6, with “populations in the bone” for “populations in the spleen and the bone”, “cell population in the bone marrow were measured.” for “cell population were measured.”
as §5, with “4-2,” for “4-1,”, “11” for “8”, “12).” for “10).”

VEGF = experiment: Cytokine expression in tumor cells after decitabine treatment, PCR (Example 7): VEGF; format: cell-based; conditions: MC38 expressing the CEA gene, 0, 10, 100 nM, 48 hours; FIG. 14
Method: as §7, §8

[9] = similarly to the gemcitabine, FIG. 6
[10] = at a lower concentration than gemcitabine, FIG. 4
[11] = 0, 0.125, 0.25, 0.5, 1 mg/kg, right abdominal cavity, FIG. 1
[12] = compared with the gemcitabine, FIG. 11

SMILES: Nc1ccn([C@@H]2O[C@H](CO)[C@@H](O)C2(F)F)c(=O)n1 [gemcitabine]
- T cell populations CD3+, CD3+CD4+, CD3+CD8+ in the spleen [1]: rapid reduction
- number of MDSC (MDSC): significantly reduces
- effective dose with MDSC suppression effect [2]: 120 mg/kg
- number of bone marrow cells [3]: increased in a concentration-dependent manner
- number of T cell populations CD3+ and CD3+CD4+ in the bone marrow [4]: increased

SMILES: O=c1[nH]cc(F)c(=O)[nH]1 [5-FU, 5-fluorouracil]
- number of MDSC (MDSC): significantly reduces

SMILES: Nc1ncn([C@H]2C[C@H](O)[C@@H](CO)O2)c(=O)n1 [decitabine, 5-aza-2′-deoxycytidine]
- granulocytic cell population CD11b+F480-Gr1hi in the spleen [5, 9]: rapid reduction
- monokaryotic cell population CD11b+F480+Gr1- in the spleen [5, 9]: rapid reduction
- subpopulations CD11b+Ly6c+Ly6g+, CD11b+Ly6chi of the MDSC cell population in the spleen ([5]; to the degree of similar to or higher than the gemcitabine, FIG. 7): rapid reduction
- T cell populations CD3+, CD3+CD4+, CD3+CD8+ in the spleen [1]: slight
- NKT cell population CD3+NK1.1+ in the spleen, significant change ([1]; FIG. 4): not induced
- myeloid-based cell populations CD11b+ and CD11c+ in the spleen ([1]; as compared with the gemcitabine, FIG. 5): rapid reduction
- B cell population B220+ in the spleen [1, 10]: reduction
- NK cell population CD3-NK1.1+ in the spleen [1, 10]: reduction
- survival rate [6, 11]: no difference
- tumor size [6, 11]: no difference
- toxicity induction by repeated administration ([6]; up to 1 mg/kg): exclude a toxicity induction possibility
- creation degree (expression) of IFN-γ in the tumor (IFN-γ): reduced
- number of cells in the MDSC cell population in vitro (MDSC cell population): rapid reduction
- creation degree (expression) of IL-6 in the tumor (IL-6): reduced
- number of bone marrow cells [3]: not significantly exhibited
- number of spleen cells ([3]; dose concentration 0.5 mg/kg, FIG. 2 left): significantly reduced
- dose with excellent MDSC suppression effect [7]: 0.5 mg/kg
- number of T cell populations CD3+ and CD3+CD4+ in the bone marrow [4]: increased
- NK cell population CD3-NK1.1+ in the bone marrow, significant changes ([4]; FIG. 9): not induced
- NKT cell population CD3+NK1.1+ in the bone marrow, significant changes ([4]; FIG. 9): not induced
- B cell population B220+ in the bone marrow ([4]; as compared with the gemcitabine, FIG. 9): reduction
- myeloid-based cell populations CD11b+ and CD11c+ in the bone marrow ([4]; as compared with the gemcitabine, FIG. 10): rapid reduction
- granulocytic cell population CD11b+F480-Gr1hi in the bone marrow [8, 12]: more rapid reduction
- monokaryotic cell population CD11b+F480+Gr1- in the bone marrow [8, 12]: more rapid reduction
- subpopulations CD11b+Ly6c+Ly6g+ and CD11b+Ly6chi of the MDSC cell population in the bone marrow ([8]; to a much higher degree than the gemcitabine, FIG. 12): rapid reduction
- creation degree (expression) of VEGF in the tumor (VEGF): reduced
